For one compound, MIC results are on record in ChEMBL document CHEMBL1152471 (2008).

Common to all, as to assay type: functional
Assay [1] has as its system Mycobacterium tuberculosis. As to the kind of experiment: Antituberculosis activity against linezolid-resistant Mycobacterium tuberculosis by bactec 460 TB method.
Assay [2] relates to Mycobacterium tuberculosis. The experiment in a line: Antituberculosis activity against linezolid-resistant Mycobacterium tuberculosis by bactec MGIT 960 method.
Assay [3] concerns Mycobacterium tuberculosis. As to the kind of experiment: Antituberculosis activity against linezolid-resistant Mycobacterium tuberculosis having mutation in 23S rRNA with identical G to T base pair exchange at position 2061.
In assay [4] the test system is Mycobacterium tuberculosis. As to the kind of experiment: Antituberculosis activity against linezolid-resistant Mycobacterium tuberculosis having mutation in 23S rRNA with G to T base pair exchange at position 2576.
Assay [5] has as its system Mycobacterium tuberculosis. The experiment in a line: Antituberculosis activity against linezolid-resistant Mycobacterium tuberculosis without mutation in 23S rRNA.
The subject of assay [6] is Mycobacterium tuberculosis. The experiment in a line: Antituberculosis activity against linezolid-resistant Mycobacterium tuberculosis having mutation in 23S rRNA with alteration in domain V.

In brackets after ≈: the same amount, converted by molar mass. Some results are limits rather than exact numbers.

As to `CC(=O)NC[C@H]1CN(c2ccc(N3CCOCC3)c(F)c2)C(=O)O1` [LINEZOLID], the minimal inhibitory concentration (MIC) (usually the lowest concentration found to suppress growth) in assay [1] was at most 1 µg/mL; in assay [2] it was at most 1 µg/mL; in assay [3] it was 32 µg/mL (≈ 94.9 µM); in assay [4] it was 16 µg/mL (≈ 47.4 µM); in assay [5] it was 4 µg/mL (≈ 11.9 µM); in assay [6] it was “>=64 ug ml-1”.
